Test results from PubChem BioAssay AID330 (DTP/NCI, 2004).
Values joined by “and” are separate entries in the source; they are usually repeats but may differ in a detail not shown here. Identical values can stand only once. Inconclusive results and toxic doses are left out. How the source made its calls: active means survival T/C of 150% or more; inactive means T/C below 125% in these data.

System: P388 leukemia ip, CD2F1 mice, survival T/C
Assay: NCI In Vivo Anticancer Drug Screen. Data for tumor model P388 Leukemia (intraperitoneal) in CD2F1 (CDF1) mice
Details: endpoint: median survival time, higher = longer survival
Outline: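 Mice carrying the transplanted tumor received test compound or vehicle. Survival was recorded in each group, and the value is the treated-group measurement divided by that of the vehicle-treated control group.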

[1] = dose: 60.0 mg/kg/injection, schedule: Q01DX005 (ip), vehicle: saline with Tween-80
[2] = dose: 120.0 mg/kg/injection, schedule: Q01DX005 (ip), vehicle: saline with Tween-80
[3] = dose: 240.0 mg/kg/injection, schedule: Q01DX005 (ip), vehicle: saline with Tween-80
[4] = dose: 60.0 mg/kg/injection, schedule: Q01DX005 (ip), vehicle: Klucel (hydroxypropylcellulose) (HPC)
[5] = dose: 120.0 mg/kg/injection, schedule: Q01DX005 (ip), vehicle: Klucel (hydroxypropylcellulose) (HPC)
[6] = dose: 240.0 mg/kg/injection, schedule: Q01DX005 (ip), vehicle: Klucel (hydroxypropylcellulose) (HPC)
[7] = dose: 50.0 mg/kg/injection, schedule: Q01DX005 (ip), vehicle: Klucel (hydroxypropylcellulose) (HPC)
[8] = dose: 100.0 mg/kg/injection, schedule: Q01DX005 (ip), vehicle: Klucel (hydroxypropylcellulose) (HPC)
[9] = dose: 200.0 mg/kg/injection, schedule: Q01DX005 (ip), vehicle: Klucel (hydroxypropylcellulose) (HPC)
[10] = dose: 50.0 mg/kg/injection, schedule: Q01DX005 (ip), vehicle: saline with Tween-80
[11] = dose: 100.0 mg/kg/injection, schedule: Q01DX005 (ip), vehicle: saline with Tween-80

Measured: T/C

CC1CN1c1cc(O)c(N2CC2C)cc1O (stereo not drawn)
inactive: dose: 0.29 mg/kg/injection, schedule: Q01DX009 (ip), vehicle: saline with Tween-80 100 % of control | dose: 0.44 mg/kg/injection, schedule: Q01DX009 (ip), vehicle: saline with Tween-80 118 % of control | dose: 0.63 mg/kg/injection, schedule: Q04DX003 (ip), vehicle: saline with Tween-80 109 % of control | dose: 0.66 mg/kg/injection, schedule: Q01DX009 (ip), vehicle: saline with Tween-80 122 % of control
active: dose: 2.5 mg/kg/injection, schedule: Q04DX003 (ip), vehicle: saline with Tween-80 150 % of control | dose: 4.4 mg/kg/injection, schedule: Q04DX003 (ip), vehicle: saline with Tween-80 228 % of control | dose: 5.0 mg/kg/injection, schedule: Q04DX003 (ip), vehicle: saline with Tween-80 159 % of control | dose: 6.6 mg/kg/injection, schedule: Q04DX003 (ip), vehicle: saline with Tween-80 238 % of control

O=C/C=C/C=O
inactive: dose: 3.13 mg/kg/injection, schedule: Q01DX001 (ip), vehicle: saline with Tween-80 102 % of control | dose: 6.25 mg/kg/injection, schedule: Q01DX001 (ip), vehicle: saline with Tween-80 102 % of control | dose: 12.5 mg/kg/injection, schedule: Q01DX001 (ip), vehicle: saline with Tween-80 102 % of control | dose: 25.0 mg/kg/injection, schedule: Q01DX001 (ip), vehicle: saline with Tween-80 114 % of control

CCOC(=O)c1csc(=S)[nH]1
inactive: [1] 107 % of control | [2] 101 % of control | [3] 100 % of control

Cc1ncc(CCl)n1Cc1ccccc1
inactive: dose: 15.0 mg/kg/injection, schedule: Q01DX005 (ip), vehicle: saline 105 % of control | dose: 30.0 mg/kg/injection, schedule: Q01DX005 (ip), vehicle: saline 106 % of control | dose: 60.0 mg/kg/injection, schedule: Q01DX005 (ip), vehicle: saline 99 % of control

CC(C)C1CCC(C)(Cl)C2CCC(C)(Cl)CC12 (stereo not drawn)
inactive: dose: 100.0 mg/kg/injection, schedule: Q04DX003 (ip), vehicle: other 90 % of control | dose: 200.0 mg/kg/injection, schedule: Q04DX003 (ip), vehicle: other 100 % of control | dose: 400.0 mg/kg/injection, schedule: Q04DX003 (ip), vehicle: other 100 % of control

CNC(=O)O/N=C/C(C)(C)SC
inactive: dose: 0.11 mg/kg/injection, schedule: Q01DX005 (ip), vehicle: Klucel (hydroxypropylcellulose) (HPC) 101 % of control | dose: 0.23 mg/kg/injection, schedule: Q01DX005 (ip), vehicle: Klucel (hydroxypropylcellulose) (HPC) 101 % of control | dose: 0.46 mg/kg/injection, schedule: Q01DX005 (ip), vehicle: Klucel (hydroxypropylcellulose) (HPC) 101 % of control

O=P(OC1=CCCCC1)(c1ccccc1)c1ccccc1
inactive: [1] 99 % of control | [2] 100 % of control | [3] 97 % of control

Oc1cccnc1[Se]
inactive: [4] 112 % of control | [5] 106 % of control | [6] 110 % of control

CC1=CC(=O)C(c2ccc(O)cc2O)=CC1=O
inactive: dose: 2.5 mg/kg/injection, schedule: Q01DX009 (ip), vehicle: saline with Tween-80 100 % of control | dose: 5.0 mg/kg/injection, schedule: Q01DX009 (ip), vehicle: saline with Tween-80 95 % of control | dose: 10.0 mg/kg/injection, schedule: Q01DX009 (ip), vehicle: saline with Tween-80 86 % of control

O/N=C1C=C/C(=C/c2ccccc2)c2ccccc2/1
inactive: [7] 96 % of control | [8] 92 % of control | [9] 92 % of control

CC1=C2C(O)C(=O)OC3CC4C(C)(C)C(=O)CCC4(C)C(CC1)C23C (stereo not drawn)
inactive: dose: 0.1 mg/kg/injection, schedule: Q01DX009 (ip), vehicle: Klucel (hydroxypropylcellulose) (HPC) 97 % of control | dose: 0.21 mg/kg/injection, schedule: Q01DX009 (ip), vehicle: Klucel (hydroxypropylcellulose) (HPC) 98 % of control | dose: 0.43 mg/kg/injection, schedule: Q01DX009 (ip), vehicle: Klucel (hydroxypropylcellulose) (HPC) 100 % of control | dose: 0.87 mg/kg/injection, schedule: Q01DX009 (ip), vehicle: Klucel (hydroxypropylcellulose) (HPC) 102 % of control | dose: 1.75 mg/kg/injection, schedule: Q01DX009 (ip), vehicle: Klucel (hydroxypropylcellulose) (HPC) 98 % of control

COc1cc(C(c2cc3c(cc2O)OCO3)N2CCOCC2)cc(OC)c1OC (stereo not drawn)
inactive: [1] 107 % of control | [2] 111 % of control

COC(=O)C1=C(C(=O)OC)C2OC1C(COC(=O)NC1CCCCC1)=C2COC(=O)NC1CCCCC1
inactive: dose: 12.5 mg/kg/injection, schedule: Q01DX009 (ip), vehicle: distilled water + Tween-80 89 % of control | dose: 25.0 mg/kg/injection, schedule: Q01DX009 (ip), vehicle: distilled water + Tween-80 87 % of control | dose: 50.0 mg/kg/injection, schedule: Q01DX009 (ip), vehicle: distilled water + Tween-80 89 % of control | dose: 100.0 mg/kg/injection, schedule: Q01DX009 (ip), vehicle: distilled water + Tween-80 87 % of control | dose: 200.0 mg/kg/injection, schedule: Q01DX009 (ip), vehicle: distilled water + Tween-80 101 % of control

COc1cc(OC)c(C2SCC(=O)N2c2nnc(C(F)(F)F)s2)c(OC)c1 (stereo not drawn)
inactive: dose: 50.0 mg/kg/injection, schedule: Q01DX005 (ip), vehicle: saline + Tween-80 + alcohol 109 % of control | dose: 100.0 mg/kg/injection, schedule: Q01DX005 (ip), vehicle: saline + Tween-80 + alcohol 102 % of control | dose: 200.0 mg/kg/injection, schedule: Q01DX005 (ip), vehicle: saline + Tween-80 + alcohol 92 % of control

OCC1CC(O)CN2CCc3c([nH]c4ccccc34)C2C1 (stereo not drawn)
inactive: dose: 12.5 mg/kg/injection, schedule: Q01DX005 (ip), vehicle: Klucel (hydroxypropylcellulose) (HPC) 99 % of control | dose: 25.0 mg/kg/injection, schedule: Q01DX005 (ip), vehicle: Klucel (hydroxypropylcellulose) (HPC) 99 % of control | [7] 101 % of control

CCOc1cc2c(cc1C(CC(=O)O)c1ccc(OC)cc1)OCO2 (stereo not drawn)
inactive: dose: 50.0 mg/kg/injection, schedule: Q01DX005 (ip), vehicle: distilled water + Tween-80 101 % of control | dose: 100.0 mg/kg/injection, schedule: Q01DX005 (ip), vehicle: distilled water + Tween-80 92 % of control | dose: 200.0 mg/kg/injection, schedule: Q01DX005 (ip), vehicle: distilled water + Tween-80 90 % of control

CCCCN1CCN(c2ccc([N+](=O)[O-])c3no[n+]([O-])c23)CC1
inactive: dose: 8.0 mg/kg/injection, schedule: Q04DX003 (ip), vehicle: suspension in saline 102 % of control | dose: 16.0 mg/kg/injection, schedule: Q04DX003 (ip), vehicle: suspension in saline 99 % of control | dose: 32.0 mg/kg/injection, schedule: Q04DX003 (ip), vehicle: suspension in saline 108 % of control

CCCCCCCCCCCCCCCC1=NCCN1
inactive: [10] 105 % of control | [11] 107 % of control

COC(=O)C1=C(C(=O)OC)C2(c3ccccc3-c3ccccc32)C2C=CC=CN12 (stereo not drawn)
inactive: [7] 100 % of control | [8] 101 % of control | [9] 100 % of control

O=C1CCNC(=O)N1CN1CCc2ccccc2C1
inactive: [4] 108 % of control | [5] 99 % of control | [6] 108 % of control

COc1cc(Br)c(C(=O)N2CCc3ccccc32)cc1OC
inactive: dose: 12.5 mg/kg/injection, schedule: Q01DX009 (ip), vehicle: other 93 % of control | dose: 25.0 mg/kg/injection, schedule: Q01DX009 (ip), vehicle: other 90 % of control

O=C1CSC(c2c(F)cccc2F)N1c1nncs1 (stereo not drawn)
inactive: [10] 98 % of control | [11] 100 % of control | dose: 200.0 mg/kg/injection, schedule: Q01DX005 (ip), vehicle: saline with Tween-80 98 % of control

CC(C)(COS(C)(=O)=O)COS(C)(=O)=O
inactive: dose: 50.0 mg/kg/injection, schedule: Q01DX009 (ip), vehicle: saline 107 % of control | dose: 50.0 mg/kg/injection, schedule: Q01DX009 (ip), vehicle: suspension in saline 96 % of control | dose: 100.0 mg/kg/injection, schedule: Q01DX009 (ip), vehicle: saline 91 % of control | dose: 100.0 mg/kg/injection, schedule: Q01DX009 (ip), vehicle: suspension in saline 101 % of control and 91 % of control | dose: 200.0 mg/kg/injection, schedule: Q01DX009 (ip), vehicle: saline 110 % of control | dose: 200.0 mg/kg/injection, schedule: Q01DX009 (ip), vehicle: suspension in saline 104 % of control and 92 % of control | dose: 400.0 mg/kg/injection, schedule: Q01DX009 (ip), vehicle: suspension in saline 112 % of control and 90 % of control

Cc1ccc(C)c(NC(=O)C#N)c1
inactive: [1] 93 % of control

CCOC(=O)c1nnc(-c2ccccc2)nc1Cl
inactive: [4] 103 % of control | [5] 100 % of control
